{
  "source": "patent US7432300B2",
  "about": "“Gossypol co-crystals and the use thereof” (The Regents of the University of Michigan, priority 2004, dated 2008)",
  "format": "physicochemical",
  "method": "(−)-Gossypol acetic acid co-crystals were yellow or pale yellow and needle shaped. […] The co-crystals were insoluble in water. The uncorrected melting point of the co-crystals was determined to be 178-180° C. using a Mel-Temp apparatus.",
  "data": [
    {"smiles": "Cc1cc2c(C(C)C)c(O)c(O)c(C=O)c2c(O)c1-c1c(C)cc2c(C(C)C)c(O)c(O)c(C=O)c2c1O", "note": "[(−)-Gossypol acetic acid co-crystals, (−)-gossypol acetic acid]", "values": [
      {"measurement": "solubility in acetone", "result": "readily soluble"},
      {"measurement": "solubility in chloroform", "result": "slightly soluble"},
      {"measurement": "solubility in ethanol", "result": "slightly soluble"},
      {"measurement": "solubility in ether", "result": "readily soluble"},
      {"measurement": "solubility in petroleum", "result": "sparsely soluble"},
      {"measurement": "solubility in water", "result": "insoluble"}
    ]}
  ]
}
